Consider five compounds from patent US8952159B2, “Method for the production of amorphous rifaximin” (priority 2009, dated 2015).

The term solubility denotes the dissolved amount per volume that the medium holds. High values mean a readily soluble substance, low ones a poorly soluble substance.

This series is described as follows: Comparative test of solubility in water of different forms of rifaximin (spectrophotometric, absorbance at 450.50 nm). It is filed as physicochemical. Particulars: suspension in deionized water, constant stirring; for Solubility in water: 25° C. The protocol: The solubility in water of different forms of rifaximin was evaluated by means of spectrophotometric method, by performing the analyses on a Lambda10 (Perkin Elmer) apparatus. The tests were performed at room temperature in demineralized water according to the following methodology. 1 g of commercial rifaximin (identified as form γ by X diffractometry) was dried in thermogravimetric apparatus at 105° C. until constant weight. 50.3 mg of the dried powder were weighed and brought in solution with deionized water in 2-L calibrated flask (solution 1). Under these conditions rifaximin was fully dissolved. On a portion of the obtained solution the spectral scanning was performed in the range of wavelengths comprised between 190 and 800 nm, by using as white deionized water. The obtained absorption spectrum points out an isolated maximum at 450.50 nm and such wavelength was used for the analytical measures. The calibration straight line was obtained by dilution of portions of the solution 1, thus obtaining the solution 2 (dilution 1:2.5), the solution 3 (1:10), the solution 4 (1:20) and the solution 5 (1:50). The straight line resulted to follow the Lambert-Beer law, showing linearity in the concentration range of the five measured reference solutions. For the tests for comparing the solubilities of the different forms, the absorbance of samples obtained from rifaximin suspensions in water excess subjected to constant stirring at 25° C. was measured. After drying at 105° C. until weight constancy, quantities properly weighed of the samples under examination (for a value of about 15 mg) were placed in becker under magnetic stirring, at 25° C. with 80 ml of deionized water. Measures on different samples obtained according to the methodologies reported in the examples 8 and 13 (defined full amorphous), on amorphous ones obtained as described in the examples 1 and 5 (with two halos) and compared to those of commercially available rifaximin, verified as form γ. In different periods of time comprised between 0.5 and 180 minutes, about 2-ml collections were performed, placed in test tube, having the prudence of preventing the collection of the suspended solid by means of filtration with filters for HPLC with porosity 0.2 μm. 0.3 ml of the collected solution were read at the UV by measuring the absorbance 450.50 nm. The samples with higher concentration, with absorbances so as to fall out of the range of the calibration straight line, were diluted until going back to the calibration range. Each experimental point consisted in 3 measures, the values thereof, coincident within 5% of error, were mediated. The concentrations are expressed in grams/liter.

The structures appear in SMILES notation. Values after ≈ are worked out from the molar mass of the structure shown.

Regarding `CO[C@H]1/C=C/O[C@@]2(C)Oc3c(C)c(O)c4c(O)c(c5c(nc6cc(C)ccn65)c4c3C2=O)NC(=O)/C(C)=C\C=C\[C@H](C)[C@H](O)[C@@H](C)[C@@H](O)[C@@H](C)[C@H](OC(C)=O)[C@@H]1C` [form γ, rifaximin], the concentration in solution (deionized water, 25 °C, water, thermodynamic from solid, time 1 min) (solubility at 1 min) came to 5.4 µg/mL (≈ 6.87 µM). Moreover, the Solubility in water by setting is: (time 0.5 min) 2.7 µg/mL (≈ 3.44 µM); (time 2 min) 5.9 µg/mL (≈ 7.51 µM); (time 5 min) 8.2 µg/mL (≈ 10.4 µM); (time 10 min) 15 µg/mL (≈ 19.1 µM); (time 30 min) 23 µg/mL (≈ 29.3 µM); (time 60 min) 37 µg/mL (≈ 47.1 µM). The Solubility in water runs as follows: (time 120 min) 43 µg/mL (≈ 54.7 µM); (time 180 min) 42 µg/mL (≈ 53.4 µM).
On to `CO[C@H]1/C=C/O[C@@]2(C)Oc3c(C)c(O)c4c(O)c(c5c(nc6cc(C)ccn65)c4c3C2=O)NC(=O)/C(C)=C\C=C\[C@H](C)[C@H](O)[C@@H](C)[C@@H](O)[C@@H](C)[C@H](OC(C)=O)[C@@H]1C` [example 13, rifaximin], for which the Solubility in water turned out to be 31 µg/mL (≈ 39.4 µM) (time 5 min); 55 µg/mL (≈ 70 µM) (time 10 min); 72 µg/mL (≈ 91.6 µM) (time 30 min); 81 µg/mL (≈ 103 µM) (time 60 min); 86 µg/mL (≈ 109 µM) (time 120 min); 89 µg/mL (≈ 113 µM) (time 180 min).
As to `CO[C@H]1/C=C/O[C@@]2(C)Oc3c(C)c(O)c4c(O)c(c5c(nc6cc(C)ccn65)c4c3C2=O)NC(=O)/C(C)=C\C=C\[C@H](C)[C@H](O)[C@@H](C)[C@@H](O)[C@@H](C)[C@H](OC(C)=O)[C@@H]1C` [example 5, rifaximin], the Solubility in water runs as follows: (time 5 min) 7.1 µg/mL (≈ 9.03 µM); (time 10 min) 15 µg/mL (≈ 19.1 µM); (time 30 min) 27 µg/mL (≈ 34.4 µM); (time 60 min) 37 µg/mL (≈ 47.1 µM); (time 120 min) 44 µg/mL (≈ 56 µM); (time 180 min) 46 µg/mL (≈ 58.5 µM).
Compound `CO[C@H]1/C=C/O[C@@]2(C)Oc3c(C)c(O)c4c(O)c(c5c(nc6cc(C)ccn65)c4c3C2=O)NC(=O)/C(C)=C\C=C\[C@H](C)[C@H](O)[C@@H](C)[C@@H](O)[C@@H](C)[C@H](OC(C)=O)[C@@H]1C` [example 8, rifaximin] had a solubility at 120 min (deionized water, 25 °C, water, thermodynamic from solid, time 120 min) of 85 µg/mL (≈ 108 µM). For the same compound, the Solubility in water is, setting by setting: (time 0.5 min) 3.3 µg/mL (≈ 4.2 µM); (time 2 min) 13 µg/mL (≈ 16.5 µM); (time 5 min) 29 µg/mL (≈ 36.9 µM); (time 10 min) 51 µg/mL (≈ 64.9 µM); (time 30 min) 76 µg/mL (≈ 96.7 µM); (time 60 min) 82 µg/mL (≈ 104 µM). In addition, the Solubility in water (time 180 min) came out at 86.4 µg/mL (≈ 110 µM).
As for `CO[C@H]1/C=C/O[C@@]2(C)Oc3c(C)c(O)c4c(O)c(c5c(nc6cc(C)ccn65)c4c3C2=O)NC(=O)/C(C)=C\C=C\[C@H](C)[C@H](O)[C@@H](C)[C@@H](O)[C@@H](C)[C@H](OC(C)=O)[C@@H]1C` [example 1, rifaximin], the Solubility in water runs as follows: (time 0.5 min) 1.11 µg/mL (≈ 1.41 µM); (time 2 min) 5.1 µg/mL (≈ 6.49 µM); (time 5 min) 6.9 µg/mL (≈ 8.78 µM); (time 10 min) 14 µg/mL (≈ 17.8 µM); (time 30 min) 25 µg/mL (≈ 31.8 µM); (time 60 min) 36 µg/mL (≈ 45.8 µM). Moreover, the Solubility in water amounted to 46 µg/mL (≈ 58.5 µM) (time 120 min) and 45 µg/mL (≈ 57.3 µM) (time 180 min).
